Here are results for 18 molecules from ChEMBL document CHEMBL1201862, “PubChem BioAssay data set” (2004).

The target in assay [1] is T1, Polyadenylate-binding protein 1 (Homo sapiens, UniProt P11940). Kind of assay: PABP1 MLLE–PAM2 interaction inhibitors, dose response, miRNA deadenylation inhibitor project, biochemical, fluorescence polarization, Cy5-PAM2 peptide, secondary (AID 602260). The assay is classed as functional. The conditions noted are these: read-out: IC50_Mean.
The next assay addresses Cytochrome P450 3A4 (Homo sapiens, UniProt P08684).
A further assay concerns the target T2, Cytochrome P450 1A2 (Homo sapiens, UniProt P05177).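 Also: PubChem cytochrome P450 panel assay, CYP1A2 panel member.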
T2 sequence (P05177 whole entry): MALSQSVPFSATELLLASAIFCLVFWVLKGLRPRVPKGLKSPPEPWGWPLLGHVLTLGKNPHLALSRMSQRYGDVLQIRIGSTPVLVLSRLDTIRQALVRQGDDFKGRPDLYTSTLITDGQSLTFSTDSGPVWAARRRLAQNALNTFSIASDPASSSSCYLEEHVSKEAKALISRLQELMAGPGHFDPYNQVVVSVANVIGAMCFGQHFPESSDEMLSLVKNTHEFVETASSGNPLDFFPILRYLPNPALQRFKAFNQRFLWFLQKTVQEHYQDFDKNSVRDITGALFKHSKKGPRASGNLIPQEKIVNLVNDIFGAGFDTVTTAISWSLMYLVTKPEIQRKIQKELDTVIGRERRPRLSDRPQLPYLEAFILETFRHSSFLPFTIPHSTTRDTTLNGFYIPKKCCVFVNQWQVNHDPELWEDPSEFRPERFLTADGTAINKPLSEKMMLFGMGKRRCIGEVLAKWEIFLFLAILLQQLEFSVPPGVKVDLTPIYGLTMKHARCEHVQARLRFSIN

Assay [2] has as its target T1, Polyadenylate-binding protein 1. Kind of assay: PABP1 MLLE–PAM2 binding inhibitor potency, dose response, biochemical, fluorescence polarization, FITC-PAM2 peptide (AID 602259). The assay is classed as functional. Conditions: read-out: IC50_Mean. Background: In fluorescence polarisation assays a small probe gives low polarisation when free and higher when bound to something large.

The next assay has as its target Cytochrome P450 2D6 (Homo sapiens, UniProt P10635).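 Also: CYP2D6 member of a cytochrome P450 panel assay.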
Assay [3] is described as follows: Luminescence Cell-Based Dose Retest to Confirm Inhibitors of Cancer Stem Cells. [Related pubchem assays (depositor defined):AID2717, AID2721]. It is filed as functional. The conditions noted are these: Homo sapiens.
Assay [4] in a line: P. falciparum Dd2 growth inhibitors, dose response, SYBR Green, cherry-picked samples (AID 1159567). It is filed as functional, cell-based.
Assay [5] is described as follows: cytotoxicity toward NIH3T3 fibroblasts, dose response, counter-screen, cell-based, ATP luminescence, mouse fibroblasts (AID 2010).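 Also: cells exposed to compound for about 90 hours before reading.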 It is filed as functional. (In general: The purpose of a counterscreen is to sort out artefacts and off-target activity.)
Assay [6] can be described thus: inhibitors of intracellular T. cruzi replication, confirmation, NIH3T3 host cells, beta-gal luminescence (AID 2044).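 Also: intracellular parasites grown in NIH/3T3 mouse fibroblasts as host cells; luminescent beta-galactosidase reporter signal from transgenic T. cruzi replicating inside host cells; inhibitors lower the luminescence signal.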 The assay is classed as functional, cell-based.

Calls of active or inactive are those of the source.

T1 sequence (P11940 whole entry): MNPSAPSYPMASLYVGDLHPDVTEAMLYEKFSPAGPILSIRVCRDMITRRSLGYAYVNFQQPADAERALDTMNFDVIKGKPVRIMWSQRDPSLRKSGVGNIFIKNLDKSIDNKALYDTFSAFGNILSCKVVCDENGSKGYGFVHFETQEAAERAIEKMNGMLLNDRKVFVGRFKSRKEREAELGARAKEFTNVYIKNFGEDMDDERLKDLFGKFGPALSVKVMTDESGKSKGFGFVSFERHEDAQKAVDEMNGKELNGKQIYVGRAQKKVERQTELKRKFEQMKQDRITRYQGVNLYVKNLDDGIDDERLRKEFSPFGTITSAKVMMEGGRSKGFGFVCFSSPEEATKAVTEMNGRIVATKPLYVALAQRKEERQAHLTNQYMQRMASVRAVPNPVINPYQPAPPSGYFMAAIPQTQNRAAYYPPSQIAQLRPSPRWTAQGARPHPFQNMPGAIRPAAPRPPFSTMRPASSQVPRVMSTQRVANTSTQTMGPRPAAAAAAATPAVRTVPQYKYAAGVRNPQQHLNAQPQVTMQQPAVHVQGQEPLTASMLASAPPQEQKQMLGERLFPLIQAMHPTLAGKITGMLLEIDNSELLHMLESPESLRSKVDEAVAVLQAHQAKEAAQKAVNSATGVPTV
Sequence of Cytochrome P450 3A4 (P08684 whole entry): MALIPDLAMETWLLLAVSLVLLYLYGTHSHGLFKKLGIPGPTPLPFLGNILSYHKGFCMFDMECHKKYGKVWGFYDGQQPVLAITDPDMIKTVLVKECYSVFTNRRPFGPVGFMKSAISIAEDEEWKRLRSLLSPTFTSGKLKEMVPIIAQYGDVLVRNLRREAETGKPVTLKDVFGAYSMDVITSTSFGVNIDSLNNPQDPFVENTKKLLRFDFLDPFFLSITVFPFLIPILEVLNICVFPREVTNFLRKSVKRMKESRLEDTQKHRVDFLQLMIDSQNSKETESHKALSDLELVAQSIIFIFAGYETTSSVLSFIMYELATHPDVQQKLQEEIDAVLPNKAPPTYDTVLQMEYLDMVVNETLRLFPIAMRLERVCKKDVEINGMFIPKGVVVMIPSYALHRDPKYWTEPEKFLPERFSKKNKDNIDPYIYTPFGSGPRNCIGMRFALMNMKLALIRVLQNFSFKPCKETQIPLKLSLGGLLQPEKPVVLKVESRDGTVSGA
Sequence of Cytochrome P450 2D6 (P10635 whole entry): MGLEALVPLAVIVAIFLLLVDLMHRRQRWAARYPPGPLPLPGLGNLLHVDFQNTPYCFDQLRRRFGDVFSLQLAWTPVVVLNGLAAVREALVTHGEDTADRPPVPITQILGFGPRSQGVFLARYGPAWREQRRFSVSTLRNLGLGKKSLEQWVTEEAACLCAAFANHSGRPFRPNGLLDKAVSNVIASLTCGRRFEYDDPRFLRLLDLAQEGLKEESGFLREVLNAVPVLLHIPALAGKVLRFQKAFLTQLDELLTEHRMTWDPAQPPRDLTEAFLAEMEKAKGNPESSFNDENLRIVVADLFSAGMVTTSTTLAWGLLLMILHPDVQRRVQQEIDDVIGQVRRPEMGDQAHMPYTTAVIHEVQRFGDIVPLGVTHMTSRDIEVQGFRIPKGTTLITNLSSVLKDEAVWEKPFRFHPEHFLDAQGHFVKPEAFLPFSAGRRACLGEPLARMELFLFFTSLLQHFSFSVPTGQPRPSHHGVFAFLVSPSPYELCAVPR

As a reminder, the AC50 is the concentration giving half of the maximal activity seen. As for `O=C(CSc1nc2ccccc2c(=O)n1CCCO)NCc1ccccc1`, the IC50 in assay [1] and in assay [2] was > 66 µM (inactive) in each case. The figures for the AC50 on Cytochrome P450 3A4, at Cytochrome P450 1A2 and on Cytochrome P450 2D6 were 3.55 µM (inconclusive), 31.6 µM (inconclusive) and 39.8 µM (inconclusive), respectively.

As for `CNc1ccccc1C(C)(C)c1cc(-c2cc(C)cc(C)c2)no1`, the AC50 in assay [3] is 13.3 µM (active). In the case of `C[C@H](CO)N1C[C@H](C)[C@H](CN(C)S(=O)(=O)c2cccs2)OCc2ccccc2-c2c(n(C)c3ccccc23)C1=O`, the AC50 in assay [4] was 26.1 µM (active). For `Cc1cccc(NC(=S)N/N=C/c2c[nH]c3ccccc23)c1`, in assay [3], the AC50 is 0.704 µM (active). Still for that read-out and setting: the figure for `C[C@@H]1CCC(=O)N(CC[C@H](Sc2ccc(Br)cc2)c2ccccc2)CC1` is 5.03 µM (active). As for `Cc1ccccc1S(=O)(=O)N1CC(=O)N2[C@H](CO)[C@H](c3ccc(C#CC4CC4)cc3)[C@@H]2C1`, the concentration at half-maximal activity (AC50) in assay [4] was 8.89 µM (active). As to `Fc1ccc(SCCc2ccncc2)cc1`, the IC50 in assay [1] and in [2] was > 66 µM (inactive) throughout. Take `CC(C)c1nc(SCC(=O)Nc2ccc(N3CCOCC3)cc2)c2ccccc2n1`: the IC50 in [1] and in assay [2] was > 66 µM (inactive) in each case. Consider `O=C(Nc1ccc(Nc2ccccc2)cc1)c1cccc(F)c1`, for which, in [3], the AC50 was 3.9 µM (active). With `Cc1c(NC(=O)Oc2ccccc2)sc(=S)n1C`, the IC50 in assay [1] and in assay [2] was > 66 µM (inactive) in each case.

A word on the EC50: it is the midpoint of the concentration-response curve. In the case of `Clc1cccc(Nc2nc(-c3ccncc3)cs2)c1`, the results for the EC50 in [5] and in assay [6] were 5.87 µM (active) and 0.714 µM (active), respectively. In assay [3], the AC50 is 3.5 µM (active). With `Fc1ccc2c(c1)c1nnc(S)nc1n2CCc1ccccc1`, the IC50 in [1] and in [2] was > 66 µM (inactive) throughout. `C[C@H](CO)N1C[C@H](C)[C@@H](CN(C)CC2CCCCC2)Oc2ccc(NC(=O)Nc3ccc(F)cc3)cc2CC1=O`: the AC50 in assay [4] is 6.76 µM (active).

With `O=C(Nc1cccc(F)c1)N1CC(=O)N2[C@H](C1)[C@@H](c1ccc(C#CC3CC3)cc1)[C@@H]2CO`, in [4], the concentration at half-maximal activity (AC50) was 8.07 µM (active). As to `O=[N+]([O-])c1cccc(NC(S)=Nc2nc(-c3ccccc3Cl)cs2)c1`, the IC50 in [1] and in [2] was > 66 µM (inactive) in each case. Turning to `CCC(=O)Nc1ccc2c(c1)OC[C@@H](C)N(Cc1cccc(F)c1)C[C@@H](C)[C@H](OC)CN(C)C2=O`, in [4], the concentration at half-maximal activity (AC50) is 3.64 µM (active). With `Cc1cccc2c1NC(=O)/C2=C\C(=O)c1cccs1`, the AC50 in assay [3] is 5.12 µM (active). Same read-out and setting: for `Fc1cccc(-c2cc3nc4c(c(NCc5ccco5)n3n2)CCCC4)c1` the value was 6.81 µM (active).
